Laboratory results from the supplement of paper PMC10627819.

How the values were obtained:
S. aureus Newman [1] = assay: Bliss interaction score (quartile over a dose matrix) (fitness difference); higher = more antagonism (negative = synergy)
How it was run: (§1)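 Growth was read as OD595 when cultures entered stationary phase, and each value was divided by the plate's robust no-drug mean and capped at 1. This normalised ratio is the fitness value, and fitness for each single drug came from the combination data. The Bliss score subtracts the expected fitness, taken as the product, from the observed fitness and is given as quartiles across technical, biological and donor/recipient replicates.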

S. pneumoniae D39V [2] = assay: as above
How it was run: as §1

B. subtilis 168 [3] = assay: as above
How it was run: as §1

S. aureus DSM 20231 [4] = assay: as above
How it was run: as §1

S. aureus Newman [5] = assay: fitness (endpoint OD595 vs no drug) (fraction); higher = more growth
How it was run: (§2)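 Fitness is computed from the optical density at which cultures reach stationary phase, divided by the robust mean of no-drug control wells. Any value above 1 is set to 1. Cultures started at OD595 0.01 in 384-well plates with TSB, LB Lennox or CY at 37 °C, and OD595 was read every 30 min for 14 h against a first-reading background.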

S. pneumoniae D39V [6] = assay: as above
How it was run: as §2

B. subtilis 168 [7] = assay: as above
How it was run: as §2

S. aureus DSM 20231 [8] = assay: as above
How it was run: as §2
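Wherever Bliss interaction score (quartile over a dose matrix) is given: first quartile when negative (synergy) and third quartile when positive (antagonism).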
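Wherever fitness (endpoint OD595 vs no drug) is given: OD595 on entry to stationary phase over no-drug wells; at most 1.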

CCCCCCCCCC(=O)N[C@@H](Cc1c[nH]c2ccccc12)C(=O)N[C@H](CC(N)=O)C(=O)N[C@@H](CC(=O)O)C(=O)N[C@@H]1C(=O)NCC(=O)N[C@@H](CCCN)C(=O)N[C@@H](CC(=O)O)C(=O)N[C@H](C)C(=O)N[C@@H](CC(=O)O)C(=O)NCC(=O)N[C@H](CO)C(=O)N[C@@H]([C@H](C)CC(=O)O)C(=O)N[C@@H](CC(=O)c2ccccc2N)C(=O)O[C@@H]1C [Daptomycin] + COc1c(N2C[C@@H]3CCCN[C@@H]3C2)c(F)cc2c(=O)c(C(=O)O)cn(C3CC3)c12 [Moxifloxacin]
Conditions	Bliss interaction score
B. subtilis 168 [3]	-0.0294
S. aureus DSM 20231 [4]	-0.0667
S. aureus Newman [1]	0.0375
S. pneumoniae D39V [2]	-0.0679

Conditions	fitness
B. subtilis 168 [7], first compound 0.125 µg/mL, partner 0.0312 µg/mL	0.0461
B. subtilis 168 [7], first compound 0.125 µg/mL, partner 0.0625 µg/mL	0.0437
B. subtilis 168 [7], first compound 0.125 µg/mL, partner 0.125 µg/mL	0.0394
B. subtilis 168 [7], first compound 0.125 µg/mL, partner 2 µg/mL	0.0342
B. subtilis 168 [7], first compound 0.125 µg/mL, partner 4 µg/mL	0.0583
B. subtilis 168 [7], first compound 0.125 µg/mL, partner 8 µg/mL	0.0431
B. subtilis 168 [7], first compound 0.25 µg/mL, partner 0.0312 µg/mL	0.0537
B. subtilis 168 [7], first compound 0.25 µg/mL, partner 0.0625 µg/mL	0.0246
B. subtilis 168 [7], first compound 0.25 µg/mL, partner 0.125 µg/mL	0.019
B. subtilis 168 [7], first compound 0.25 µg/mL, partner 2 µg/mL	0.0893
B. subtilis 168 [7], first compound 0.25 µg/mL, partner 4 µg/mL	0.0796
B. subtilis 168 [7], first compound 0.25 µg/mL, partner 8 µg/mL	0.124
B. subtilis 168 [7], first compound 0.5 µg/mL, partner 0.0312 µg/mL	0.0547
B. subtilis 168 [7], first compound 0.5 µg/mL, partner 0.0625 µg/mL	0.026
B. subtilis 168 [7], first compound 0.5 µg/mL, partner 0.125 µg/mL	0.0309
B. subtilis 168 [7], first compound 0.5 µg/mL, partner 2 µg/mL	0.0708
B. subtilis 168 [7], first compound 0.5 µg/mL, partner 4 µg/mL	0.044
B. subtilis 168 [7], first compound 0.5 µg/mL, partner 8 µg/mL	0.0672
S. aureus DSM 20231 [8], first compound 0.5 µg/mL, partner 0.0075 µg/mL	0.776
S. aureus DSM 20231 [8], first compound 0.5 µg/mL, partner 0.015 µg/mL	0.754
S. aureus DSM 20231 [8], first compound 0.5 µg/mL, partner 0.03 µg/mL	0.673
S. aureus DSM 20231 [8], first compound 1 µg/mL, partner 0.0075 µg/mL	0.837
S. aureus DSM 20231 [8], first compound 1 µg/mL, partner 0.015 µg/mL	0.786
S. aureus DSM 20231 [8], first compound 1 µg/mL, partner 0.03 µg/mL	0.696
S. aureus DSM 20231 [8], first compound 2 µg/mL, partner 0.0075 µg/mL	0.761
S. aureus DSM 20231 [8], first compound 2 µg/mL, partner 0.015 µg/mL	0.749
S. aureus DSM 20231 [8], first compound 2 µg/mL, partner 0.03 µg/mL	0.655
S. aureus Newman [5], first compound 0.125 µg/mL, partner 0.0075 µg/mL	0.751
S. aureus Newman [5], first compound 0.25 µg/mL, partner 0.0075 µg/mL	0.744
S. aureus Newman [5], first compound 0.25 µg/mL, partner 0.015 µg/mL	0.636
S. aureus Newman [5], first compound 0.5 µg/mL, partner 0.0075 µg/mL	0.774
S. pneumoniae D39V [6], first compound 1 µg/mL, partner 0.005 µg/mL	0.947
S. pneumoniae D39V [6], first compound 1 µg/mL, partner 0.01 µg/mL	0.965
S. pneumoniae D39V [6], first compound 1 µg/mL, partner 0.02 µg/mL	0.846
S. pneumoniae D39V [6], first compound 1 µg/mL, partner 0.0312 µg/mL	0.0587
S. pneumoniae D39V [6], first compound 1 µg/mL, partner 0.0625 µg/mL	0.0444
S. pneumoniae D39V [6], first compound 1 µg/mL, partner 0.125 µg/mL	0.0384
S. pneumoniae D39V [6], first compound 2 µg/mL, partner 0.005 µg/mL	0.946
S. pneumoniae D39V [6], first compound 2 µg/mL, partner 0.01 µg/mL	0.951
S. pneumoniae D39V [6], first compound 2 µg/mL, partner 0.02 µg/mL	0.826
S. pneumoniae D39V [6], first compound 2 µg/mL, partner 0.0312 µg/mL	0.0617
S. pneumoniae D39V [6], first compound 2 µg/mL, partner 0.0625 µg/mL	0.0424
S. pneumoniae D39V [6], first compound 2 µg/mL, partner 0.125 µg/mL	0.0433
S. pneumoniae D39V [6], first compound 4 µg/mL, partner 0.005 µg/mL	0.95
S. pneumoniae D39V [6], first compound 4 µg/mL, partner 0.01 µg/mL	0.988
S. pneumoniae D39V [6], first compound 4 µg/mL, partner 0.02 µg/mL	0.885
S. pneumoniae D39V [6], first compound 4 µg/mL, partner 0.0312 µg/mL	0.0587
S. pneumoniae D39V [6], first compound 4 µg/mL, partner 0.0625 µg/mL	0.0393
S. pneumoniae D39V [6], first compound 4 µg/mL, partner 0.125 µg/mL	0.0263

fitness, one replicate
Conditions	first compound 0.5 µg/mL	first compound 1 µg/mL	first compound 2 µg/mL
B. subtilis 168 [7], partner 0.0312 µg/mL	–	0.0152	–
B. subtilis 168 [7], partner 0.0625 µg/mL	–	0.0268	–
B. subtilis 168 [7], partner 0.125 µg/mL	–	0.0146	–
S. aureus DSM 20231 [8], partner 0.06 µg/mL	0.667	0.654	0.637
S. aureus DSM 20231 [8], partner 0.12 µg/mL	0.49	0.46	0.46
